Reference: PMC5218480 (PLoS ONE, 2017)

Tested on: MV-4-11 cells
Test: Gene expression microarray analysis (Affymetrix PrimeView) and GSEA
Format: cell-based, human
Set-up: RFU PODN (11730768_x_at) / Fold change /veh PODN (11730768_x_at) / RFU LINC00158 (11744669_a_at) / Fold change /veh LINC00158 (11744669_a_at) / RFU DUSP10 (11751237_a_at) / Fold change /veh DUSP10 (11751237_a_at) / RFU ID3 (11757404_x_at) / Fold change /veh ID3 (11757404_x_at) / RFU PLEKHG5 (11737974_s_at) / Fold change /veh PLEKHG5 (11737974_s_at) / RFU LRRC4B (11730491_at) / Fold change /veh LRRC4B (11730491_at) / RFU GIMAP4 (11747438_a_at) / Fold change /veh GIMAP4 (11747438_a_at) / RFU KRT8 (11758183_x_at) / Fold change /veh KRT8 (11758183_x_at) / RFU CNN1 (11734310_a_at) / Fold change /veh CNN1 (11734310_a_at) / RFU VPS37D (11726825_at) / Fold change /veh VPS37D (11726825_at) / RFU C10orf10 (11716522_x_at) / Fold change /veh C10orf10 (11716522_x_at) / RFU KIR2DL2 /// KIR2DL4 /// KIR2DL5A /// KIR2DL5B /// KIR2DS1 /// KIR2DS2 /// KIR2DS3 /// KIR2DS4 /// KIR3DL3 /// KIR3DL3 /// KIR3DS1 (11738374_at) / Fold change /veh KIR2DL2 /// KIR2DL4 /// KIR2DL5A /// KIR2DL5B /// KIR2DS1 /// KIR2DS2 /// KIR2DS3 /// KIR2DS4 /// KIR3DL3 /// KIR3DL3 /// KIR3DS1 (11738374_at) / RFU C1QL1 (11718748_at) / Fold change /veh C1QL1 (11718748_at) / RFU TMPRSS4 (11747572_a_at) / Fold change /veh TMPRSS4 (11747572_a_at) / RFU HAMP (11756126_x_at) / Fold change /veh HAMP (11756126_x_at) / RFU RNFT2 (11725882_a_at) / Fold change /veh RNFT2 (11725882_a_at) / RFU NR4A2 (11747474_a_at) / Fold change /veh NR4A2 (11747474_a_at) / RFU ABCC12 (11746883_a_at) / Fold change /veh ABCC12 (11746883_a_at) / RFU TMEM136 (11760407_x_at) / Fold change /veh TMEM136 (11760407_x_at) / RFU CLDN22 /// WWC2 (11732394_at) / Fold change /veh CLDN22 /// WWC2 (11732394_at) / RFU HLA-DPB1 (11760878_x_at) / Fold change /veh HLA-DPB1 (11760878_x_at) / RFU SPINT1 (11716480_a_at) / Fold change /veh SPINT1 (11716480_a_at) / RFU GAP43 (11754022_s_at) / Fold change /veh GAP43 (11754022_s_at) / RFU A4GNT (11735810_at) / Fold change /veh A4GNT (11735810_at) / RFU PRB3 (11715151_x_at) / Fold change /veh PRB3 (11715151_x_at) / RFU TUBB4B (11761932_at) / Fold change /veh TUBB4B (11761932_at) / RFU CAPN14 (11732068_a_at) / Fold change /veh CAPN14 (11732068_a_at) / RFU TMCC2 (11721928_a_at) / Fold change /veh TMCC2 (11721928_a_at) / RFU IRGQ (11745062_a_at) / Fold change /veh IRGQ (11745062_a_at) / RFU FAM174B (11720279_a_at) / Fold change /veh FAM174B (11720279_a_at) / RFU TMPRSS4 (11748680_a_at) / Fold change /veh TMPRSS4 (11748680_a_at) / RFU FAM212B (11763350_a_at) / Fold change /veh FAM212B (11763350_a_at) / RFU PLEKHG5 (11743358_a_at) / Fold change /veh PLEKHG5 (11743358_a_at) / RFU ZSCAN30 (11745921_a_at) / Fold change /veh ZSCAN30 (11745921_a_at) / RFU CMKLR1 (11741424_a_at) / Fold change /veh CMKLR1 (11741424_a_at) / RFU LOC101060620 /// MAPK8IP1 (11723275_at) / Fold change /veh LOC101060620 /// MAPK8IP1 (11723275_at) / RFU SPTSSB (11747773_x_at) / Fold change /veh SPTSSB (11747773_x_at) / RFU PRSS12 (11739890_at) / Fold change /veh PRSS12 (11739890_at) / RFU BIN1 (11741810_x_at) / Fold change /veh BIN1 (11741810_x_at) / RFU WNT11 (11732464_a_at) / Fold change /veh WNT11 (11732464_a_at) / RFU C10orf10 (11716521_a_at) / Fold change /veh C10orf10 (11716521_a_at) / RFU C5orf56 (11738089_at) / Fold change /veh C5orf56 (11738089_at) / RFU CYB561 (11721691_x_at) / Fold change /veh CYB561 (11721691_x_at) / RFU ANKRD19P (11752326_a_at) / Fold change /veh ANKRD19P (11752326_a_at) / RFU OR2T12 /// OR2T33 /// OR2T8 (11738714_s_at) / Fold change /veh OR2T12 /// OR2T33 /// OR2T8 (11738714_s_at) / RFU VCAN (11748164_a_at) / Fold change /veh VCAN (11748164_a_at) / RFU JSRP1 (11732532_at) / Fold change /veh JSRP1 (11732532_at) / RFU KRTAP10-11 (11738290_x_at) / Fold change /veh KRTAP10-11 (11738290_x_at) / RFU MYO3A (11730013_a_at) / Fold change /veh MYO3A (11730013_a_at) / RFU EBF3 (11725865_a_at) / Fold change /veh EBF3 (11725865_a_at) / RFU CAMK2N1 (11719241_x_at) / Fold change /veh CAMK2N1 (11719241_x_at) / RFU C5orf56 (11738088_a_at) / Fold change /veh C5orf56 (11738088_a_at) / RFU OLFML3 (11715873_a_at) / Fold change /veh OLFML3 (11715873_a_at) / RFU LOC100653217 /// NTM (11731650_a_at) / Fold change /veh LOC100653217 /// NTM (11731650_a_at) / RFU MAPK11 (11762145_a_at) / Fold change /veh MAPK11 (11762145_a_at) / RFU FIZ1 (11724087_x_at) / Fold change /veh FIZ1 (11724087_x_at) / RFU OASL (11726364_x_at) / Fold change /veh OASL (11726364_x_at) / RFU SOX15 (11748057_x_at) / Fold change /veh SOX15 (11748057_x_at) / RFU CD79A (11719716_a_at) / Fold change /veh CD79A (11719716_a_at) / RFU HIST1H1D (11736915_at) / Fold change /veh HIST1H1D (11736915_at) / RFU CASKIN2 (11723855_a_at) / Fold change /veh CASKIN2 (11723855_a_at) / RFU LOC730098 (11760151_x_at) / Fold change /veh LOC730098 (11760151_x_at) / RFU OR4N2 (11742367_at) / Fold change /veh OR4N2 (11742367_at) / RFU PRRT2 (11749266_a_at) / Fold change /veh PRRT2 (11749266_a_at) / RFU SNX32 (11753110_a_at) / Fold change /veh SNX32 (11753110_a_at) / RFU CDHR5 (11726645_a_at) / Fold change /veh CDHR5 (11726645_a_at) / RFU RCAN1 (11760418_a_at) / Fold change /veh RCAN1 (11760418_a_at) / RFU FAM167A (11723789_a_at) / Fold change /veh FAM167A (11723789_a_at) / RFU FAM26E (11764081_at) / Fold change /veh FAM26E (11764081_at) / RFU ISYNA1 (11749810_s_at) / Fold change /veh ISYNA1 (11749810_s_at) / RFU ACY1 (11761880_at) / Fold change /veh ACY1 (11761880_at) / RFU 11764098_at / Fold change /veh 11764098_at / RFU SAMD14 (11745864_x_at) / Fold change /veh SAMD14 (11745864_x_at) / RFU NPB (11741838_a_at) / Fold change /veh NPB (11741838_a_at) / RFU TMPRSS6 (11731388_a_at) / Fold change /veh TMPRSS6 (11731388_a_at) / RFU KRTAP10-2 (11738614_at) / Fold change /veh KRTAP10-2 (11738614_at) / RFU ARHGAP8 /// PRR5-ARHGAP8 (11727945_x_at) / Fold change /veh ARHGAP8 /// PRR5-ARHGAP8 (11727945_x_at) / RFU KRTAP5-7 /// NADSYN1 (11734609_at) / Fold change /veh KRTAP5-7 /// NADSYN1 (11734609_at) / RFU RASL12 (11751679_a_at) / Fold change /veh RASL12 (11751679_a_at) / RFU CDKN2B (11736163_a_at) / Fold change /veh CDKN2B (11736163_a_at) / RFU PRF1 (11729649_at) / Fold change /veh PRF1 (11729649_at) / RFU, ZNF638 /// ZNF638-IT1 / Fold change vs veh, ZNF638 /// ZNF638-IT1 / RFU, PANK3 / Fold change vs veh, PANK3 / RFU, SH3YL1 / Fold change vs veh, SH3YL1 / RFU, ZEB2 / Fold change vs veh, ZEB2 / RFU, NRIP1 / Fold change vs veh, NRIP1 / RFU, PTTG1IP / Fold change vs veh, PTTG1IP / RFU, CAPN2 / Fold change vs veh, CAPN2 / RFU, MED14 / Fold change vs veh, MED14 / RFU, SNORA58 / Fold change vs veh, SNORA58 / RFU, C1orf63 / Fold change vs veh, C1orf63 / RFU, LRRFIP1 / Fold change vs veh, LRRFIP1 / RFU, NDUFAF7 / Fold change vs veh, NDUFAF7 / RFU, SLC12A2 / Fold change vs veh, SLC12A2 / RFU, IBTK / Fold change vs veh, IBTK / RFU, ESF1 / Fold change vs veh, ESF1 / Fold change vs veh, TMEM50B / RFU, TAOK1 / Fold change vs veh, TAOK1 / RFU, ACBD3 / Fold change vs veh, ACBD3 / RFU, TMA16 / Fold change vs veh, TMA16 / RFU, RWDD3 / Fold change vs veh, RWDD3 / RFU, BCAT1 / Fold change vs veh, BCAT1 / RFU, EDEM3 / Fold change vs veh, EDEM3 / RFU, TMEM33 / Fold change vs veh, TMEM33 / RFU, WDR75 / Fold change vs veh, WDR75 / RFU, AHCTF1 / Fold change vs veh, AHCTF1 / RFU, TFRC / Fold change vs veh, TFRC / RFU, ZDHHC17 / Fold change vs veh, ZDHHC17 / RFU, NOM1 / Fold change vs veh, NOM1 / RFU, ARL8B / Fold change vs veh, ARL8B / RFU, ZBTB11 / Fold change vs veh, ZBTB11 / RFU, TAMM41 / Fold change vs veh, TAMM41 / RFU, KIAA1704 /// LOC100996395 / Fold change vs veh, KIAA1704 /// LOC100996395 / RFU, ING1 / Fold change vs veh, ING1 / RFU, TRMT61B / Fold change vs veh, TRMT61B / RFU, FUBP3 / Fold change vs veh, FUBP3 / RFU, TP53 / Fold change vs veh, TP53 / RFU, TNKS2 / Fold change vs veh, TNKS2 / RFU, ZFP14 / Fold change vs veh, ZFP14 / RFU, ACTR2 / Fold change vs veh, ACTR2 / RFU, PPP3R1 / Fold change vs veh, PPP3R1 / RFU, PIK3R1 / Fold change vs veh, PIK3R1 / RFU, HNRNPA1 / Fold change vs veh, HNRNPA1 / RFU, RNF170 / Fold change vs veh, RNF170 / RFU, ZNF28 / Fold change vs veh, ZNF28 / RFU, RNGTT / Fold change vs veh, RNGTT / RFU, OGT / Fold change vs veh, OGT / RFU, BRD1 / Fold change vs veh, BRD1 / RFU, MARS / Fold change vs veh, MARS / RFU, ZNF655 / Fold change vs veh, ZNF655 / RFU, FAHD1 / Fold change vs veh, FAHD1 / RFU, BDP1 / Fold change vs veh, BDP1 / RFU, LRRCC1 / Fold change vs veh, LRRCC1 / RFU, ARID1A / Fold change vs veh, ARID1A / RFU, ZNF146 / Fold change vs veh, ZNF146 / RFU, ZNF330 / Fold change vs veh, ZNF330 / RFU, GPN3 / Fold change vs veh, GPN3 / RFU, C9orf123 / Fold change vs veh, C9orf123 / RFU, N4BP2L2 / Fold change vs veh, N4BP2L2 / RFU, ARFIP1 / Fold change vs veh, ARFIP1 / RFU, FAM179B / Fold change vs veh, FAM179B / RFU, BCL10 / Fold change vs veh, BCL10 / RFU, UHRF1BP1L / Fold change vs veh, UHRF1BP1L / RFU, BET1 / Fold change vs veh, BET1 / RFU, CNOT2 / Fold change vs veh, CNOT2 / RFU, ZNF268 / Fold change vs veh, ZNF268 / Fold change vs veh, ZNF507 / RFU, DGCR2 / Fold change vs veh, DGCR2 / RFU, WDSUB1 / Fold change vs veh, WDSUB1 / Fold change vs veh, HSP90B1 /// MIR3652 / RFU, ADSS / Fold change vs veh, ADSS / RFU, GK / Fold change vs veh, GK / RFU, ZNF148 / Fold change vs veh, ZNF148 / RFU, TAF9 / Fold change vs veh, TAF9 / RFU, SLC1A5 / Fold change vs veh, SLC1A5 / RFU, SLMO2 / Fold change vs veh, SLMO2 / RFU, ABCC4 / Fold change vs veh, ABCC4 / RFU, LOC101060439 /// RAP1B / Fold change vs veh, LOC101060439 /// RAP1B / RFU, RFX7 / Fold change vs veh, RFX7 / RFU, GTPBP10 / Fold change vs veh, GTPBP10 / RFU, CNEP1R1 / Fold change vs veh, CNEP1R1 / RFU, BIVM-ERCC5 /// ERCC5 / Fold change vs veh, BIVM-ERCC5 /// ERCC5 / RFU, ILF3 / Fold change vs veh, ILF3 / RFU 11762660_at / Fold change /veh 11762660_at / RFU VCAN (11757783_s_at) / Fold change /veh VCAN (11757783_s_at) / RFU DDX43 (11728927_at) / Fold change /veh DDX43 (11728927_at) / RFU KRT8 (11758188_x_at) / Fold change /veh KRT8 (11758188_x_at) / RFU NKD1 (11759106_at) / Fold change /veh NKD1 (11759106_at) / RFU SRD5A1 (11742802_a_at) / Fold change /veh SRD5A1 (11742802_a_at) / RFU TPSAB1 /// TPSB2 (11721975_s_at) / Fold change /veh TPSAB1 /// TPSB2 (11721975_s_at) / RFU GSTM3 (11746129_a_at) / Fold change /veh GSTM3 (11746129_a_at) / RFU IL23R (11737362_x_at) / Fold change /veh IL23R (11737362_x_at) / RFU TMEM51 (11727254_a_at) / Fold change /veh TMEM51 (11727254_a_at) / RFU PIWIL2 (11732686_x_at) / Fold change /veh PIWIL2 (11732686_x_at) / RFU ORM1 (11744905_x_at) / Fold change /veh ORM1 (11744905_x_at) / RFU CCDC152 (11743942_at) / Fold change /veh CCDC152 (11743942_at) / RFU ECM1 (11717891_a_at) / Fold change /veh ECM1 (11717891_a_at) / RFU IL23R (11748794_a_at) / Fold change /veh IL23R (11748794_a_at) / RFU TNFAIP8L3 (11732012_x_at) / Fold change /veh TNFAIP8L3 (11732012_x_at) / RFU MBOAT4 (11741988_at) / Fold change /veh MBOAT4 (11741988_at) / RFU 11764193_at / Fold change /veh 11764193_at / RFU TMEM53 (11763286_at) / Fold change /veh TMEM53 (11763286_at) / RFU MAGEB2 (11727129_at) / Fold change /veh MAGEB2 (11727129_at) / RFU TMEM200A (11744735_a_at) / Fold change /veh TMEM200A (11744735_a_at) / RFU CCDC152 (11751479_a_at) / Fold change /veh CCDC152 (11751479_a_at) / RFU FAM211A (11726209_a_at) / Fold change /veh FAM211A (11726209_a_at) / RFU RGS16 (11746705_a_at) / Fold change /veh RGS16 (11746705_a_at) / RFU VCAN (11755009_s_at) / Fold change /veh VCAN (11755009_s_at) / RFU RHOB (11743442_s_at) / Fold change /veh RHOB (11743442_s_at) / RFU RGS16 (11720943_a_at) / Fold change /veh RGS16 (11720943_a_at) / RFU RGS16 (11720944_at) / Fold change /veh RGS16 (11720944_at) / RFU, VPS4B / Fold change vs veh, VPS4B / RFU, CREB1 / Fold change vs veh, CREB1 / RFU, DNAJC13 / Fold change vs veh, DNAJC13 / RFU, GNAQ / Fold change vs veh, GNAQ / RFU, CDK5R1 / Fold change vs veh, CDK5R1 / RFU, ZRANB3 / Fold change vs veh, ZRANB3 / RFU, CUL4A / Fold change vs veh, CUL4A / RFU, CCNY / Fold change vs veh, CCNY / RFU, UFL1 / Fold change vs veh, UFL1 / RFU, COG3 / Fold change vs veh, COG3 / RFU, DIAPH2 / Fold change vs veh, DIAPH2 / RFU, SKA2 / Fold change vs veh, SKA2 / RFU, AFF3 / Fold change vs veh, AFF3 / RFU, LMF1 / Fold change vs veh, LMF1 / RFU, IPO11 / Fold change vs veh, IPO11 / RFU, DFFB / Fold change vs veh, DFFB / RFU, FOXP1 / Fold change vs veh, FOXP1 / RFU, CARD8 / Fold change vs veh, CARD8 / RFU, STRN3 / Fold change vs veh, STRN3 / RFU, ADK / Fold change vs veh, ADK / RFU, RASSF2 / Fold change vs veh, RASSF2 / RFU, WIPF1 / Fold change vs veh, WIPF1 / RFU, LARP1B / Fold change vs veh, LARP1B / RFU, RASA1 / Fold change vs veh, RASA1 / RFU, RB1 / Fold change vs veh, RB1 / RFU, PPFIA1 / Fold change vs veh, PPFIA1 / RFU, MAT2A / Fold change vs veh, MAT2A / RFU, CCT5 / Fold change vs veh, CCT5 / RFU, WDR92 / Fold change vs veh, WDR92 / RFU, CUX1 / Fold change vs veh, CUX1 / RFU, TTC7A / Fold change vs veh, TTC7A / RFU, TMEM135 / Fold change vs veh, TMEM135 / RFU, DEPTOR / Fold change vs veh, DEPTOR / RFU, CPM / Fold change vs veh, CPM / RFU, DNAJB6 / Fold change vs veh, DNAJB6 / RFU, CACNA2D3 / Fold change vs veh, CACNA2D3 / RFU, DTX4 / Fold change vs veh, DTX4 / RFU, TFCP2 / Fold change vs veh, TFCP2 / RFU, GMCL1 /// GMCL1P1 / Fold change vs veh, GMCL1 /// GMCL1P1 / RFU, AEBP2 / Fold change vs veh, AEBP2 / RFU, SNHG1 /// SNORD22 /// SNORD25 /// SNORD26 /// SNORD27 /// SNORD28 /// SNORD29 /// SNORD31 / Fold change vs veh, SNHG1 /// SNORD22 /// SNORD25 /// SNORD26 /// SNORD27 /// SNORD28 /// SNORD29 /// SNORD31 / Fold change (Aza/veh), C12orf56 (ProbeSet 11735607_a_at) / Fold change (ACY-1035/veh), C12orf56 (ProbeSet 11735607_a_at) / Fold change (Aza/veh), FGFR1OP (ProbeSet 11751329_s_at) / Fold change (ACY-1035/veh), FGFR1OP (ProbeSet 11751329_s_at) / Fold change (Aza/veh), VPS36 (ProbeSet 11739960_a_at) / Fold change (ACY-1035/veh), VPS36 (ProbeSet 11739960_a_at) / RFU SYPL1 (11715823_x_at) / Fold change /veh SYPL1 (11715823_x_at) / RFU IGFBP7 (11715501_s_at) / Fold change /veh IGFBP7 (11715501_s_at) / RFU REEP3 (11722064_at) / Fold change /veh REEP3 (11722064_at) / RFU IGLL1 (11728026_x_at) / Fold change /veh IGLL1 (11728026_x_at): dose or concentration left out as unconfirmed
Settings: ProbeSet 11747937_a_at; LIST D

## Nc1ncn([C@@H]2O[C@H](CO)[C@@H](O)[C@H]2O)c(=O)n1 [azacitidine]
  RFU, DNAJB6: 212.79 RFU
